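Interpolation was linear, between the two tested concentrations surrounding the appropriate level; five concentrations were tested over 48 hours in 96-well plates. The concentration for 50% growth inhibition is given as GI50.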 The source made the active and inactive calls. No stated cut-off is given here; in the data, active = GI50 up to about 1.1 µM and inactive = higher.
Experiments:
Assay in all cases: inhibition of tumour cell growth, NCI panel, 48 h
CCRF-CEM = system: CCRF-CEM
COLO 205 = system: COLO 205
Hs-578T = system: Hs-578T
KM12 = system: KM12
MDA-MB-435 = system: MDA-MB-435
MOLT-4 = system: MOLT-4
NCI-H460 = system: NCI-H460
NCI/ADR-RES = system: NCI/ADR-RES
PC-3 = system: PC-3
RPMI-8226 = system: RPMI-8226
SF-539 = system: SF-539
SK-MEL-28 = system: SK-MEL-28
SK-MEL-5 = system: SK-MEL-5
SK-OV-3 = system: SK-OV-3
SNB-19 = system: SNB-19
SNB-75 = system: SNB-75
SR = system: SR
TK-10 = system: TK-10
UACC-257 = system: UACC-257
UO-31 = system: UO-31

| SMILES | GI50 (CCRF-CEM) | GI50 (COLO 205) | GI50 (Hs-578T) | GI50 (KM12) | GI50 (MDA-MB-435) | GI50 (MOLT-4) | GI50 (NCI-H460) | GI50 (NCI/ADR-RES) | GI50 (PC-3) | GI50 (RPMI-8226) | GI50 (SF-539) | GI50 (SK-MEL-28) | GI50 (SK-MEL-5) | GI50 (SK-OV-3) | GI50 (SNB-19) | GI50 (SNB-75) | GI50 (SR) | GI50 (TK-10) | GI50 (UACC-257) | GI50 (UO-31) |
| --- | --- | --- | --- | --- | --- | --- | --- | --- | --- | --- | --- | --- | --- | --- | --- | --- | --- | --- | --- | --- |
| CC(=O)OCCOCCN1CCN(C2=C(Cl)C(=O)c3c(O)ccc(O)c3C2=O)CC1 | 0.0662 µM (active) | 0.231 µM (active) | 3.1 µM (inactive) | 2.15 µM (inactive) | 0.71 µM (active) | 0.165 µM (active) | 4.9 µM (inactive) | 0.296 µM (active) | 1.51 µM (inactive) | 0.249 µM (active) | 1.71 µM (inactive) | 1.04 µM (active) | 1.54 µM (inactive) | 3.66 µM (inactive) | 3.04 µM (inactive) | 2.06 µM (inactive) | 0.0444 µM (active) | 0.46 µM (active) | 1.02 µM (active) | 1.22 µM (inactive) |
| COc1ccc2c(NCCCCCCNc3c4ccccc4nc4cc(OC)ccc34)c3ccccc3nc2c1 | 0.0447 µM (active) | 0.0753 µM (active) | 0.219 µM (active) | 0.0776 µM (active) | 0.254 µM (active) | 0.0146 µM (active) | 0.0272 µM (active) | 2.72 µM (inactive) | 0.0885 µM (active) | 0.0573 µM (active) | 0.0929 µM (active) | 0.342 µM (active) | 1.01 µM (active) | 0.245 µM (active) | 0.218 µM (active) | 0.175 µM (active) | 0.0185 µM (active) | 0.385 µM (active) | 0.731 µM (active) | 12.9 µM (inactive) |

From ChEMBL document CHEMBL1201862, “PubChem BioAssay data set” (2004)
